Data on 18 compounds can be found in patent publication US8980888B2, “Pyrazole derivative” (Mochida Pharmaceutical Co., Ltd., priority 2013, dated 2015).

Bounds are passed on as bounds.

The test system of the first assay is apomorphine-induced stereotypy.
Assay: not given
Particulars: rats; according to U.S. Patent Application No. 2003/0032579; cited from earlier work.
For `COc1ccc(Cc2nccc3cc(OC)c(OC)cc23)cc1OC` [papaverine], the apomorphine-induced stereotypy result was “decreases”.

For a further assay, the system named is haloperidol-induced catalepsy.
Assay: not given
The conditions noted are these: rat; according to U.S. Patent Application No. 2003/0032579; cited from earlier work.
With `COc1ccc(Cc2nccc3cc(OC)c(OC)cc23)cc1OC` [papaverine], the haloperidol-induced catalepsy entry is recorded as “increases”.

In another assay the test system is dopamine level in the rat brain.
Assay: not given
The conditions noted are these: according to U.S. Patent Application No. 2003/0032579; cited from earlier work.
Consider `COc1ccc(Cc2nccc3cc(OC)c(OC)cc23)cc1OC` [papaverine], for which the “dopamine level in the rat brain” value is “decreases”.

The target in the next assay is T1, Human PDE10 (Homo sapiens, UniProt Q9Y233).
T1 construct: purchased BPA Bioscience (so in the source)
T1 sequence (Q9Y233 whole entry): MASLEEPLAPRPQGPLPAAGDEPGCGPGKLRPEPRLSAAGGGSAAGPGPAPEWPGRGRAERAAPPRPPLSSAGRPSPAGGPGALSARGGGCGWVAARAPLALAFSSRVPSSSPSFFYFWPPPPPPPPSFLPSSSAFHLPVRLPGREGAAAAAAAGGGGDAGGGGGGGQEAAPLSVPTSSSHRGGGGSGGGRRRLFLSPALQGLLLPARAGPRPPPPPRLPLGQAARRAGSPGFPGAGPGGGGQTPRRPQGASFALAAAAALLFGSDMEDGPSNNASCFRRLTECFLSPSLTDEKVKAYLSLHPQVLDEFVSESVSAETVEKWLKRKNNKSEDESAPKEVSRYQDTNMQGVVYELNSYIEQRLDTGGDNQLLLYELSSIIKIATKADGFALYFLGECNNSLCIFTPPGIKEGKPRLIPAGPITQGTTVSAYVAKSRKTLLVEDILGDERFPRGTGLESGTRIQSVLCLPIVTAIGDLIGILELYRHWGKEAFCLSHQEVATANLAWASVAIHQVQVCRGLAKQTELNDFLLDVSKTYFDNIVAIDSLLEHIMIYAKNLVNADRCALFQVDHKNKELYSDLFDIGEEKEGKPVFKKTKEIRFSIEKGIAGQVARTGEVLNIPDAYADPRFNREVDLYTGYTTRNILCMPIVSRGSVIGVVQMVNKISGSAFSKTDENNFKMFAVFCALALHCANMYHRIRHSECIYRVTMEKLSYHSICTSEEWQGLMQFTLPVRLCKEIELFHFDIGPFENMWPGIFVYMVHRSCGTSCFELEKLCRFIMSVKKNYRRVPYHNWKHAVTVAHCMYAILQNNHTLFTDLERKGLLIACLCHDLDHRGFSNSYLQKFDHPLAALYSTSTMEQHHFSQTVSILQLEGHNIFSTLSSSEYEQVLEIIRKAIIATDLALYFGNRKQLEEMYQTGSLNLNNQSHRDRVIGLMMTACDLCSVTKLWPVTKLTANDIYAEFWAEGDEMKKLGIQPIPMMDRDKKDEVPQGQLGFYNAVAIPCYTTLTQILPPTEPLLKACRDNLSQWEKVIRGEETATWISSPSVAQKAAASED
Description: Human PDE10 inhibitory effect (IMAP TR-FRET enzyme inhibition assay). The format is biochemical. The conditions noted are these: PDE10 inhibitory activity, cAMP substrate. Here is the method: (Evaluation of Enzyme Inhibitory Activity: Human PDE10 Inhibitory Effect)
IMAP TR-FRET Phosphodiersterase Evaluation Assay Kit (Molecular Device) was used for the measurement. Ten μL of a diluted test compound having each concentration and 5 μL of the enzyme PDE10 (BPA Bioscience) that had been diluted to 2 ng/mL with 1×IMAP Reaction Buffer (prepared with 5× included with the kit, 10 mM Tris-HCl, pH=7.2, 10 mM MgCl2, 0.05% NaN3, and 0.1% BSA) containing 0.1% BSA were added to a 384-well plate (Corning). The obtained mixture was then pre-incubated at room temperature for 5 minutes. Thereafter, 5 μL of cAMP substrate solution which was included with the kit and diluted to 400 nM with 1×IMAP Reaction Buffer containing 0.1% BSA, was added to the reaction solution, and the obtained mixture was reacted at room temperature for 60 minutes. Thereafter, 60 μL of an IMAP TR-FRET Binding solution included with the kit was further added to the reaction solution, and the obtained mixture was then left for 3 hours or more. Subsequently, using ARVO SX (PerkinElmer), the fluorescent intensity of Terbium (Emission=490 nm) and TR-FRET (Emission=520 nm) in the reaction solution were measured at an excitation wavelength of 340 nm, so as to calculate the amount of the generated 5′-AMP. The count of a well to which a solvent had been added instead of the test compound was set at 0%, and the count of a well to which the enzyme PDE10 had not been added was set at 100%. Thus, the inhibitory activity of each test compound was calculated.
The PDE10 inhibitory activity of the test compound was indicated with an IC50 value. […] The test compounds are shown in Table 3 (Table 3-1 and Table 3-2).
On the technique in general: Time-resolved FRET reads energy transfer from a long-lived donor to a nearby acceptor.
One may read the IC50 as the concentration at which inhibition is half-maximal. High values mean weaker potency, low ones greater potency. In the case of `Cn1ncc(-c2ncccc2C#N)c1C(=O)NC1CCn2nc(-c3ccccc3)nc2C1` (centres unmarked) [Example 5.27, 4-(3-cyanopyridin-2-yl)-1-methyl-N-(2-phenyl-5,6,7,8-tetrahydro-[1,2,4]triazolo[1,5-a]pyridin-7-yl)-1H-pyrazole-5-carboxamide], the IC50 is 5 to 100 nM.
On to `Cc1nc(-c2cnn(C)c2C(=O)NC2CCn3nc(-c4ccc(F)cc4)nc3C2)c(C)s1` (centres unmarked) [Example 5.28, 4-(2,5-dimethylthiazol-4-yl)-N-(2-(4-fluorophenyl)-5,6,7,8-tetrahydro-[1,2,4]triazolo[1,5-a]pyridin-7-yl)-1-methyl-1H-pyrazole-5-carboxamide], for which the IC50 fell in the range of 5 to 100 nM.
Regarding `CC(=O)c1sc(C)nc1-c1cnn(C)c1C(=O)NC1CCn2nc(-c3ccccc3)nc2C1` (centres unmarked) [Example 5.30, 4-(5-acetyl-2-methylthiazol-4-yl)-1-methyl-N-(2-phenyl-5,6,7,8-tetrahydro-[1,2,4]triazolo[1,5-a]pyridin-7-yl)-1H-pyrazole-5-carboxamide], the IC50 lay within 5 to 100 nM.
In turn, `Cc1nc(-c2cnn(C)c2C(=O)NC2CCn3nc(-c4ccccc4)nc3C2)c(C(C)O)s1` (centres unmarked) [Example 5.31, 4-(5-(1-hydroxyethyl)-2-methylthiazol-4-yl)-1-methyl-N-(2-phenyl-5,6,7,8-tetrahydro-[1,2,4]triazolo[1,5-a]pyridin-7-yl)-1H-pyrazole-5-carboxamide] had an IC50 of 5 to 100 nM.
For `Cn1ncc(-c2nc(C(F)F)cs2)c1C(=O)NC1CCn2nc(-c3ccccc3F)nc2C1` (centres unmarked) [Example 5.32, 4-(4-(difluoromethyl)thiazol-2-yl)-N-(2-(2-fluorophenyl)-5,6,7,8-tetrahydro-[1,2,4]triazolo[1,5-a]pyridin-7-yl)-1-methyl-1H-pyrazole-5-carboxamide], the IC50 lay within 5 to 100 nM.
In the case of `Cn1ncc(-c2nc(C(F)F)cs2)c1C(=O)NC1CCn2nc(-c3cccc(F)c3)nc2C1` (centres unmarked) [Example 5.33, 4-(4-(difluoromethyl)thiazol-2-yl)-N-(2-(3-fluorophenyl)-5,6,7,8-tetrahydro-[1,2,4]triazolo[1,5-a]pyridin-7-yl)-1-methyl-1H-pyrazole-5-carboxamide], the IC50 fell in the range of 5 to 100 nM.
Compound `Cn1ncc(-c2nc(C(F)F)c(C3CC3)s2)c1C(=O)NC1CCn2nc(-c3ccc(F)cc3)nc2C1` (centres unmarked) [Example 5.35, 4-(5-cyclopropyl-4-(difluoromethyl)thiazol-2-yl)-N-(2-(4-fluorophenyl)-5,6,7,8-tetrahydro-[1,2,4]triazolo[1,5-a]pyridin-7-yl)-1-methyl-1H-pyrazole-5-carboxamide] yielded an IC50 of 5 to 100 nM.
For `Cn1ncc(-c2nc(C(F)F)c(Cl)s2)c1C(=O)NC1CCn2nc(-c3cccc(F)c3)nc2C1` (centres unmarked) [Example 5.37, 4-(5-chloro-4-(difluoromethyl)thiazol-2-yl)-N-(2-(3-fluorophenyl)-5,6,7,8-tetrahydro-[1,2,4]triazolo[1,5-a]pyridin-7-yl)-1-methyl-1H-pyrazole-5-carboxamide], the IC50 was 5 to 100 nM.
`Cc1nc(-c2cnn(C)c2C(=O)NC2CCn3nc(-c4ccccc4)nc3C2)sc1C1CC1` (centres unmarked) [Example 5.38, 4-(5-cyclopropyl-4-methylthiazol-2-yl)-1-methyl-N-(2-phenyl-5,6,7,8-tetrahydro-[1,2,4]triazolo[1,5-a]pyridin-7-yl)-1H-pyrazole-5-carboxamide] came in with an IC50 of 5 to 100 nM.
In turn, `Cc1nc(-c2cnn(C)c2C(=O)NC2CCn3nc(-c4ccccc4)nc3C2)c(C)s1` (centres unmarked) [Example 5.39, 4-(2,5-dimethylthiazol-4-yl)-1-methyl-N-(2-phenyl-5,6,7,8-tetrahydro-[1,2,4]triazolo[1,5-a]pyridin-7-yl)-1H-pyrazole-5-carboxamide] showed an IC50 of 5 to 100 nM.
`Cn1ncc(-c2cccc(C#N)n2)c1C(=O)NC1CCn2nc(-c3ccccc3)nc2C1` (centres unmarked) [Example 5.40, 4-(6-cyanopyridin-2-yl)-1-methyl-N-(2-phenyl-5,6,7,8-tetrahydro-[1,2,4]triazolo[1,5-a]pyridin-7-yl)-1H-pyrazole-5-carboxamide] had an IC50 of 5 to 100 nM.
The same measure, in the same setting: the figure for `Cn1ncc(-c2nc(C#N)cs2)c1C(=O)NC1CCn2nc(-c3ccc(F)cc3)nc2C1` (centres unmarked) [Example 5.41, 4-(4-cyanothiazol-2-yl)-N-(2-(4-fluorophenyl)-5,6,7,8-tetrahydro-[1,2,4]triazolo[1,5-a]pyridin-7-yl)-1-methyl-1H-pyrazole-5-carboxamide] is 5 to 100 nM; for `Cn1ncc(-c2nc(C(F)F)c(C3CC3)s2)c1C(=O)NC1CCn2nc(-c3cccc(F)c3)nc2C1` (centres unmarked) [Example 5.42, 4-(5-cyclopropyl-4-(difluoromethyl)thiazol-2-yl)-N-(2-(3-fluorophenyl)-5,6,7,8-tetrahydro-[1,2,4]triazolo[1,5-a]pyridin-7-yl)-1-methyl-1H-pyrazole-5-carboxamide] it is 5 to 100 nM.
For `Cc1nc(-c2cnn(C)c2C(=O)NC2CCn3nc(-c4ccc(F)cc4)nc3C2)sc1C1CC1` (centres unmarked) [Example 5.43, 4-(5-cyclopropyl-4-methylthiazol-2-yl)-N-(2-(4-fluorophenyl)-5,6,7,8-tetrahydro-[1,2,4]triazolo[1,5-a]pyridin-7-yl)-1-methyl-1H-pyrazole-5-carboxamide], the IC50 is 5 to 100 nM.
In turn, `CC(=O)c1sc(C)nc1-c1cnn(C)c1C(=O)NC1CCn2nc(-c3cccc(F)c3)nc2C1` (centres unmarked) [Example 5.44, 4-(5-acetyl-2-methylthiazol-4-yl)-N-(2-(3-fluorophenyl)-5,6,7,8-tetrahydro-[1,2,4]triazolo[1,5-a]pyridin-7-yl)-1-methyl-1H-pyrazole-5-carboxamide] yielded an IC50 of 5 to 100 nM.
`Cn1ncc(-c2nc(C(F)(F)F)cs2)c1C(=O)NC1CCn2nc(N3CCCC3)nc2C1` (centres unmarked) [Example 5.46, 1-methyl-N-(2-(pyrrolidin-1-yl)-5,6,7,8-tetrahydro-[1,2,4]triazolo[1,5-a]pyridin-7-yl)-4-(4-(trifluoromethyl)thiazol-2-yl)-1H-pyrazole-5-carboxamide]: the IC50 was less than 5 nM.
Regarding `Cc1cccc(-c2cnn(C)c2C(=O)NC2CCn3nc(N4CCCC4)nc3C2)n1` (centres unmarked) [Example 5.47, 1-methyl-4-(6-methylpyridin-2-yl)-N-(2-(pyrrolidin-1-yl)-5,6,7,8-tetrahydro-[1,2,4]triazolo[1,5-a]pyridin-7-yl)-1H-pyrazole-5-carboxamide], the IC50 is 5 to 100 nM.
